According to patent US6573050B1, “Treatment, diagnosis and evaluation of anti-cancer therapy resistance in melanoma” (Sunnybrook & Women's College Health Sciences Centre, priority 1999, dated 2003):
Read-outs that look alike come from different tables or passages of the source.

Key:
[1] = test system: Clone E and Clone G cells vs WM35 cells; assay: Cross resistance of CDDP-resistant clones, MTS assay; settings: 24 hours treatment, various concentrations, MTS assay (FIG. 3)
Description: (§8) Cytotoxicity Assay. The number of viable cells following a treatment was assessed using the CellTiter™ 96 Aqueous Non-Radioactive MTS Cell Proliferation Assay (Promega). Briefly, 1×10^4 cells/well were plated in 96-well plates, allowed to attach overnight and then administered therapeutic agents at various levels for 24 hours. Four hours prior to harvest, MTS/phenazine methosulfate was added to the cells and the number of variable cells was determined by measuring the quantity of formazan by spectrophotometric analysis at 490 nm.
(§9) The indicated cell lines were cultured in 96 well plates at a density of 8×10^3 cells per well and treated for 24 hours with either A) carboplatin; B) taxol; or C) methotrexate, at the indicated concentrations. Cell viabilities were determined using the MTS assay (Promega), measuring the cellular conversion of the tetrazolium salt, MTS, into formula which can be quantified at 490 nm.

MeWo derived tumors = assay: MeWo tumors in immunodeficient CD-1 nude mice, CDDP treatment; format: in vivo; settings: CDDP 2 mg/kg/2 days
Description: (§1) In order to determine the significance of TYRP2-mediated CDDP resistance in vivo, tumors were generated in immunodeficient CD-1 mice by subcutaneous injection of 2×10^6 cells of either MeWo or WM9. WM35 cells were not used for in vivo studies because they lack tumorigenicity (Bani et al. (1996) Cancer Res. 56:3075-3086). […] Mice bearing these tumors were treated with CDDP three times weekly at a dose of 2 mg/kg.
FIG. 12 illustrates the correlation between TYRP2 expression and CDDP resistance in vivo. Tumors were generated in immunodeficient CD-1 nude mice by subdermally injecting MeWo cells.

WM9 derived tumors = assay: WM9 tumors in immunodeficient CD-1 nude mice, CDDP treatment; format: in vivo; settings: CDDP 2 mg/kg/2 days
Description: as §1
FIG. 13 illustrates the correlation between TYRP2 expression and CDDP resistance in vivo in WM9 cells. Tumors were generated in immunodeficient CD-1 nude mice by subdermally injecting WM9 cells. […] By day 18 of treatment, the tumors in 2 of 5 mice had completely disappeared.

MeWo cells = assay: MTS cytotoxicity assay, CDDP treatment; format: cell-based, human; settings: 15 μM CDDP
Description: (§2) Cells and Culture Conditions. All human melanoma cell lines were generously provided by Dr. Meenhard Herlyn (Wistar Institute, Philadelphia, Pa.). The CDDP-resistant variants of WM35 (designated as Clone A to Clone I) were established by retroviral insertioual mutagenesis of WM35 cells as described previously (Lu et al. (1995) Cancer Res. 55:1139-1145). Cells were routinely maintained in RPMI 1640 (Life Technologies) supplement with 5% FBS (Life Technologies) at 37° C. in a humidified atmosphere of 95% air; 5% CO2.
(§3) FIG. 9 illustrates the response of melanoma cell lines to CDDP treatment. Each of the cell lines indicated were plated in 96-well plates at a density of 1×10^5 cells/well and treated with 15 μM CDDP for 24 hours. Percentage of viable cells were determined by the MTS assay. […] The levels TYRP2 expression in these cells directly correlated with their resistance to CDDP treatment (15 μM CDDP, 24 hours). For example, the cell line WM9, which expresses very low levels of TYRP2 was very sensitive to CDDP treatment (<20% of cells survived). Conversely, the cell lines WM451 and MeWo, for example, which express high levels of TYRP2 were resistant to CDDP treatment (approximately 80% of cells survived).
(§4) To determine the correlation between levels of TYRP2 expression and CDDP resistance, the cells assessed in the UV(B) survival assay as shown in Table 2 were further assessed for resistance to CDDP. Cells were plated in 96-well plates and treated with 15 μM CDDP. After a 24 hour incubation, cell viability was determined by the MTS assay.

[2] = test system: Clone E cells (CDDP-resistant variant of WM35); assay: MTS cytotoxicity assay, CDDP treatment; format: cell-based, human; settings: 15 μM CDDP
Description: as §2, §3, §4

WM9 cells = assay: MTS cytotoxicity assay, CDDP treatment; format: cell-based, human; settings: 15 μM CDDP
Description: as §2, §3, §4

[3] = test system: Clone E and Clone G cells vs WM35 cells; assay: CDDP resistance of retrovirally derived clones compared to parental WM35; format: cell-based, human; settings: approximately
Description: as §2
This technique of retroviral insertional mutagenesis was applied on WM35 cells, an early stage CDDP sensitive human melanoma cell line. WM35 cells were infected with a replication defective amphotrophic murine stein cell virus (MSCV) retrovirus and the pooled cells were subsequently selected for CDDP resistance.
From this technique, nine independently derived clones, Clone A to Clone I, were obtained. […] Since changes in tumor sensitivities in the range of 2-5 fold can account for loss of tumor responsiveness to anti-cancer therapeutic drugs, this difference could be clinically significant (Kuroda et al. (1991) Int. J. Cancer 47:732-737).

WM35 cells [4] = assay: MTS cytotoxicity assay, CDDP treatment; format: cell-based, human; settings: 15 μM CDDP, 24 hour incubation, mean ± SEM, n=3
Description: as §2, §4

WM35 cells [5] = assay: PARP cleavage, Western blot (apoptosis); format: cell-based, human; settings: 15 μM CDDP, as early as
Description: (§5) SDS-PAGE and Western Blot Analysis. Cell lysates were prepared using lysis buffer consisting of 50 mM Tris, pH 7.4, 50 mM NaCl, 2 mM MgCl2, 1 mM EDTA, 05% IDEPAL CA-630 and protease inhibitors (0.1 mM PMSF, 100 μM sodium vanadate, 20 μg/ml leupeptin, 20 mM […], 1 mM benzamide). Protein concentrations were determined by the Bradford assay (BioRad Laboratories) and equivalent quantities of protein (25 μg) were resolved by SDS-polyacrylamide gel electrophoresis (Laemmli (1970) Nature, 227, 680-685). […] Membranes were then incubated with a horseradish-peroxidase conjugated goat anti-rabbit antibody (1:5000 dilution) and immunoreactive sites were detected by enhanced chemiluminescence (Amersham). […]
(§6) The mechanism of action of CDDP, as well as other DNA alkylating agents ultimately involves generation of DNA damage and subsequently the induction of apoptosis. In order to determine if the increased resistance to CDDP in the retrovirally derived clones was associated with a reduction in CDDP-induced apoptosis, the levels of apoptosis in one of these clones (Clone E) relative to its parental WM35 cells were determined following treatment with 15 μM CDDP.
(§7) Increased cleavage of poly-ADP-ribose-polymerase (PARP) from the 116 kDa to the smaller 84 kDa subunit in WM35 cells was detected as early as 6 bours following 15 μM CDDP treatment. […]

Clone E cells = assay: PARP cleavage, Western blot (apoptosis); format: cell-based, human; settings: 15 μM CDDP, up to 24 hours
Description: as §5, §6, §7

WM1341B cells = assay: MTS cytotoxicity assay, CDDP treatment; format: cell-based, human; settings: 15 μM CDDP, 24 hours, MTS assay (FIG. 9)
Description: as §2, §3

WM451 cells = assay: MTS cytotoxicity assay, CDDP treatment; format: cell-based, human; settings: 15 μM CDDP, 24 hours, MTS assay (FIG. 9)
Description: as §2, §3

WM373 cells = assay: MTS cytotoxicity assay, CDDP treatment; format: cell-based, human; settings: 15 μM CDDP, 24 hours, MTS assay (FIG. 9)
Description: as §2, §3

1552C cells = assay: MTS cytotoxicity assay, CDDP treatment; format: cell-based, human; settings: 15 μM CDDP, 24 hours, MTS assay (FIG. 9)
Description: as §2, §3

[6] = test system: WM35 cells vs Clone E cells; assay: DNA fragmentation assay, Cell Death Detection ELISA; format: cell-based, human; settings: 15 μM CDDP, 18 hours
Description: DNA Fragmentation Assay. Levels of apoptosis were determined by quantifying DNA fragmentation using the Cell Death Detection ELISA Plus kit (Boehringer Mannheim). Briefly, cells were plated in 96-well plates at a density of 1×10^4 cells/well and allowed to attach overnight. Cells were treated with 15 μM CDDP for 18 hours and then lysed. Cell lysates were transferred to streptavidin-coated plates and used for ELISA analysis using anti-bistone-biotin and anti-DNA POD antibodies.
FIG. 2 illustrates DNA fragmentation analysis by ELISA using antibodies that recognize mono- and oligonucleotide fragments. Mono- and oligo-nucleosomes in the DNA of WM35 cells treated with 15 μM CDDP for 18 hours, were detected with a Cell Death ELISA Detection Kit (Boehringer Mannheim). The production of DNA 180 bp multimers was approximately 5 times greater in WM35 cells than in Clone E cells.

[7] = test system: XR9 cells (x-ray resistant variant of WM35); assay: MTS cytotoxicity assay, CDDP treatment; format: cell-based, human; settings: 15 μM CDDP, 24 hour incubation, mean ± SEM, n=3
Description: Gamma radiation resistant mutant cell lines were selected using retroviral insertional mutagenesis, with selection based on resistance to gamma radition. X-ray resistant mutant cell lines, designated as “XR” were established.
as §4

[8] = test system: Clone E and Clone G cells vs WM35 cells
Description: as §8, §9

[9] = 24 hour incubation, MTS assay, mean ± SEM, n=3

## N.N.O=C([O-])C1(C(=O)[O-])CCC1.[Pt+2] [carboplatin]
[1]
  resistance of Clone E and Clone G to cytotoxic effects compared to WM35 cells: more resistant

## N.N.[Cl][Pt][Cl] [CDDP, cis-diamminedichloroplatinum(II)]
MeWo derived tumors
  growth rates of tumors, CDDP treated vs saline treated mice: did not differ
WM9 derived tumors
  growth rates of tumors relative to saline treated controls: significant reduction in growth rates
WM9 derived tumors; by day 18 of treatment
  mice whose tumors had completely disappeared: 2 of 5
MeWo cells; [9]
  % Survival: 77.0 ± 5.3%
MeWo cells; 24 hours, MTS assay (FIG. 9)
  % of cells survived: approximately 80%
[2]; [9]
  % Survival: 77.4 ± 6.7%
[2]; 24 hours, MTS assay (FIG. 9)
  survival compared to WM35 cells: substantially higher survival
WM9 cells; [9]
  % Survival: 13.8 ± 1.6%
WM9 cells; 24 hours, MTS assay (FIG. 9)
  % of cells survived: < 20%
[3]
  increase in CDDP resistance compared to parental WM35 cells: 2 to 3 fold
WM35 cells [4]
  % Survival: 52.6 ± 4.4%
WM35 cells [5]
  time at which increased PARP cleavage (116 kDa to 84 kDa subunit) was detected: 6 bours
Clone E cells
  increased levels of PARP cleavage: not evident
WM1341B cells
  survival compared to WM35 cells: substantially higher survival
WM451 cells
  % of cells survived: approximately 80%
WM373 cells
  survival compared to WM35 cells: substantially higher survival
1552C cells
  sensitivity to CDDP treatment: highly sensitive
[6]
  production of DNA 180 bp multimers, WM35 cells relative to Clone E cells: approximately 5 times
[7]
  % Survival: 82.4 ± 1.7%

## CN(Cc1cnc2nc(N)nc(N)c2n1)c1ccc(C(=O)N[C@@H](CCC(=O)O)C(=O)O)cc1 [methotrexate]
[8]
  resistance of Clone E and Clone G to cytotoxic effects compared to WM35 cells: more resistant

## CC(=O)O[C@H]1C(=O)[C@@]2(C)[C@H]([C@H](OC(=O)c3ccccc3)[C@]3(O)C[C@H](OC(=O)[C@H](O)[C@@H](NC(=O)c4ccccc4)c4ccccc4)C(C)=C1C3(C)C)[C@]1(OC(C)=O)CO[C@@H]1C[C@@H]2O [taxol]
[8]
  resistance of Clone E and Clone G to cytotoxic effects compared to WM35 cells: equally sensitive
